Usually IC50 stands for the concentration at which inhibition is half-maximal. A word on the melting point: it is the temperature, or range, at which the solid turns liquid.

Structures can show the parent of a compound that is named as a salt.

The first series has as its system hepatitis B virus. Kind of series: antiviral action on hepatitis B virus in HepG2.2.15 cells (HBV DNA dot-blot hybridization). The following applies: 96 h, 2 x 4 days incubation, intra- or extracellular hepatitis B-specific DNA band reduced by 50% vs untreated sample. It is filed as cell-based. How it is done:
The antiviral action of the compounds according to the invention on hepatitis B virus was investigated by methods based on those described by M. A. Sells et al., Proc. Natl. Acad. Sci. 84, 1005-1009 (1987) and B. E. Korba et al., Antiviral Research 19, 55-70 (1992).
The antiviral tests were carried out in 96-well microtitre plates. The first vertical row of the plate received only growth medium and HepG2.2.15 cells. It served as virus control.
Stock solutions of the test compounds (50 mM) were initially dissolved in DMSO, and further dilutions were prepared in the HepG2.2.15 growth medium. The compounds according to the invention were usually pipetted in a test concentration of 100 μM (lst test concentration) in each case into the second vertical test row of the microtitre plate and subsequently diluted in twofold steps 2^10 times in growth medium +2% by weight fetal calf serum (volume 25 μl).
Each well of the microtitre plate then contained 225 μl of HepG2.2.15 cell suspension (5×10^4 cells/ml) in growth medium +2% by weight of fetal calf serum. The test mixture was incubated at 37° C. and 5% CO2 (v/v) for 4 days.
The supernatant was then aspirated off and discarded, and the wells received 225 μl of freshly prepared growth medium. The compounds according to the invention were each added anew as 10-fold concentrated solution in a volume of 25 μl. The mixtures were incubated for a further 4 days.
The supematants/cells were then harvested and sucked by means of a vacuum onto 96-well dot-blot chambers covered with a nylon membrane (in accordance with the manufacturer's information).
After the supernatants or lysed cells had been transferred to the nylon membrane of the blot apparatus (see above), the intra- or extracellular supernatants of the HepG2.2.15 cells were denatured (1.5 M NaCl/0.5 N NaOH), neutralized (3 M NaCl/0.5 M Tris HCl, pH 7.5) and washed (2× SSC). The DNA was then baked onto the membrane by incubating the filters at 120° C. for 2-4 hours.
Detection of the viral DNA from the treated HepG2.2.15 cells on the nylon filters was easily carried out with non-radioactive, digoxigenin-labelled hepatitis B-specific DNA probes, each of which was labelled with digoxigenin, purified and employed for the hybridization in accordance with the manufacturer's information.
The prehybridization and hybridization took place in 5× SSC, 1× blocking reagent, 0.1% by weight N-lauroylsarcosine, 0.02% by weight SDS and 100 μg of herring sperm DNA. The prehybridization took place at 60° C. for 30minutes, and the specific hybridization with 20 to 40 ng/ml of the digoxigenized, denatured HBV-specific DNA took place at 60° C. for 14 hours. The filters were then washed.
The immunological detection of the digoxigenin-labelled DNA took place in accordance with the manufacturer's information:
The filters were washed and prehybridized in a blocking reagent (in accordance with the manufacturer's information). Hybridization was then carried out with an anti-DIG antibody coupled to alkaline phosphatase for 30 minutes. After a washing step, the substrate of alkaline phosphatase, CSPD, was added, incubated with the filters for 5 minutes, then packed in plastic film and incubated at 37° C. for a further 15 minutes. The chemiluminescence of the hepatitis B-specific DNA signals was visualized by exposing the filters to an X-ray film (incubation depending on signal strength: 10 minutes to 2 hours).
The half-maximum inhibitory concentration (IC50, 50% inhibitory concentration) was determined as the concentration at which the intra- or extracellular hepatitis B-specific band was reduced by the compound according to the invention by 50% compared with an untreated sample.
Take `Cc1cccc(-c2ccc3c(c2)OC2(CCCCC2)C(CCC#N)C3=O)c1` (stereo not drawn) [Example 76]: the IC50 was in the range of 2 to 120 nM.

On to `N#CCCC1C(=O)c2ccc(-c3ccc(F)c(F)c3)cc2OC12CCCC2` (stereo not drawn) [Example 82], for which the IC50 lay in the range of 2 to 120 nM.

As for `N#CCCC1C(=O)c2ccc(-c3cccc(C#N)c3)cc2OC12CCCC2` (stereo not drawn) [Example 97], the IC50 is 2 to 120 nM.

Take `N#CCCC1C(=O)c2ccc(-c3ccc(F)c(F)c3)cc2OC12CCC2` (stereo not drawn) [Example 99]: the IC50 fell in the range of 2 to 120 nM.

The compound `N#CCCC1C(=O)c2ccc(-c3cccc([N+](=O)[O-])c3)cc2OC12CCCC2` (stereo not drawn) [Example 116] returned an IC50 of 2 to 120 nM.

Compound `N#CCCC1C(=O)c2ccc(-c3cccc(N)c3)cc2OC12CCCCC2` (stereo not drawn) [Example 132, 3-(2-Cyanoethyl)-7-(3-aminophenyl)spiro[2H-1-benzopyran-2,1′-cyclohexan]-4(3H)-one Hydrochloride] yielded an IC50 of 2 to 120 nM.

Tested on in a further series: not given
Assay: not given
Settings: not given
`O=C(O)CCC1C(=O)c2ccc(-c3ccccc3)cc2OC12CCCCC2` (stereo not drawn) came in with a melting point of 196 °C.

For the compound `N#CCCC1C(=O)c2cc(F)c(F)cc2OC12CCCCC2` (stereo not drawn), the melting point amounted to 80 °C.

As for `N#CCCC1(CCC#N)C(=O)c2ccc(Br)cc2OC12CCCCC2`, the melting point lay in the range of 145 to 149 °C.

With `N#CCCC1(CCC#N)C(=O)c2ccc(-c3cccnc3)cc2OC12CCCCC2`, the melting point is 190 to 195 °C.

For the compound `N#CCCC1C(=O)c2ccc(-c3ccc(F)cc3)cc2OC12CCCCC2` (stereo not drawn), the melting point was in the range of 61 to 63 °C.

Compound `Cc1cccc(-c2ccc3c(c2)OC2(CCCCC2)C(CCC#N)C3=O)c1` (stereo not drawn) [Example 76] showed a melting point of 86 to 90 °C.

(Values after US20020082264A1, “Medicaments for viral diseases” (priority 2000, published 2002).)
